The text below walks through data of patent US20210401782A1, “COMPOSITION FOR PREVENTING AND TREATMENT OF STROKE” (NEUROBIOGEN CO.,LTD, priority 2018, published 2021).

The structures appear in SMILES notation.

Holding throughout (type): in vivo, SD rat
The subject of experiment [1] is rodent stroke model. Kind of experiment: neurofiber staining, size of the infarction in an internal capsule. The settings on record: 10 mg/kg orally once a day. On the procedure: (§1) Light stimuli was applied to the posterior limb of the internal capsule of a 9 week-old SD rat to produce a white-matter cerebral infarction animal model.
(§2) Specifically, the animal was anesthetized with an anesthetic drug, a combination of ketamine (ketamine hydrochloride, 100 mg/kg) and xylazine (7 mg/kg), and a hole was drilled at a position of 2.0 mm rearwards and 3.1 mm laterally outwards from the skull bregma using stereotaxis, and an optical fiber (inner diameter of 62.5 μm, outer diameter of 125 μm) was inserted to a depth of 7.2 mm to target the posterior limb of the internal capsule. Rose bengal (20 mg/kg) was injected into the tail vein, and optical stimulation was conducted using a 3.7 mW green laser for 1.5 minutes through an optical fiber. Then, the optical fiber was removed and the operation was completed, ketoprofen (2 mg/kg) was injected for pain control, and then the animal was allowed to recover. The control group was injected with 0.9% saline, instead of rose bengal.
Rats in the group administered with KDS2010 as a drug were orally administered with a solution of KDS2010 in saline at a concentration of 10 mg/kg once a day (FIG. 2A).
Rats in the rehabilitation-trained group practiced a single-pellet reaching task (SPRT) for 20 minutes daily for 3 weeks after stroke surgery. […]

Experiment [2] deals with rodent stroke model. Kind of experiment: cylinder test in rodent stroke model. The settings on record: Stroke+KDS2010: 10 mg/kg orally once a day, no rehabilitation; compared to the control group. On the procedure: as §1
as §2, with “bengal. […]” for “bengal.”
For the cylinder test, animals were placed in a transparent cylinder (20 cm in diameter and 30 cm in height) to observe which limb was used more when supporting the cylinder wall with the forelimbs. A total of 20 movements were recorded, and the ratio of the use of the forelimb corresponding to the stroke and the opposite forelimb was calculated during the total number of cycles.

The test system of experiment [3] is rodent stroke model. Put plainly: single-pellet reaching task (SPRT) in rodent stroke model. The settings on record: Stroke+rehab+KDS2010: 10 mg/kg orally once a day plus rehabilitation training; white-matter cerebral infarction rat model. On the procedure:
as §1
as §2, with “bengal. […]” for “bengal.”
For the single-pellet reaching task, an acrylic box (45 cm×13 cm×40 cm) having a 1 cm vertical slit on the front wall thereof was used, and a sugar pellet was placed in front of the slit. […] The proportion of the number of pellets remaining in the mouth, without dropping, to 20 pellets in total was calculated.

For `C[C@H](NCc1ccc(-c2ccc(C(F)(F)F)cc2)cc1)C(N)=O` [KDS2010, (S)-2-(((4′-trifluoromethylbiphenyl-4-yl)methyl)amino)propanamide methanesulfonate], the “size of the infarction in the internal capsules” value with rodent stroke model [1] (Stroke+KDS: drug-administered group, no rehabilitation, versus control group) was “considerably larger size of the infarction”; in the experiment with rodent stroke model [1] (Stroke+rehab+KDS: rehabilitation training in combination with drug administration) it was “further reduced infarction sizes”. For the same compound, in the experiment on rodent stroke model [2], the “motor function using the cylinder test” value is listed as “significantly recovered motor function”. For the same compound, in the experiment with rodent stroke model [3], the “motor function through single-pellet reaching task” value is reported as “recovered motor function to an almost normal level”.
